According to patent publication US20070298997A1, “Compounds useful in treating diabetic microvascular complications and age-related macular degeneration” (priority 2003, published 2007):

What was measured:
[1] = tested on: Retinal capillary endothelial cells (RCEC); test: Quantification of viable cells by MTT assay, RCEC; assay type: cell-based, bovine; details: 5 μM, 48 h
Experimental: FIG. 2 illustrates the specific inhibition of endothelial cell proliferation by recombinant kallistatin. RCEC were treated with recombinant kallistatin at concentrations of 5,10, 20, 40, 80 and 160 nM for 72 h. Viable cells were quantified by MTT assay. […] This effect appeared to be kallistatin concentration-dependent, with an apparent IC50 of 50 nM (FIG. 2) which is similar to that of K5, a known angiogenic inhibitor (Zhang et al., 2001).
FIG. 7 illustrates the effects of B1 and B2 kinin receptor antagonists on RCEC. In order to test whether the anti-angiogenic activity of kallistatin is via reducing kinin production by inhibiting kallikrein activity, RCEC were treated with 5 μM des-Arg^9-[Leu^8]-bradykinin, a specific antagonist of the B1 kinin receptor or Hoe-140, a specific B2 kinin receptor antagonist, in the presence or absence of 40 nM kallistatin for 48 h, and viable cells were quantified by MTT assay.
Quantification of viable cells: Cells were plated in 12-well plates in triplicate and cultured in the growth medium until they reached 60-70% of confluency. The culture medium was replaced with a medium containing 1% fetal bovine serum (FBS). Recombinant kallistatin was added to the cover medium to various concentrations and incubated with the cells for 72 h. The viable cells were quantified by the MTT (3-[4,5-dimethylthiazol-2-yl]-2,5-dephenyl tetrazolium bromid, Roche, Mannheim, Germany) assay following a protocol recommended by the manufacturer. The effect of kallistatin on viable cell number was analyzed using Student's t test.

B1 receptor = details: at 1 mM; cited from earlier work

Substance: Hoe-140 [reference compound]
- inhibition of RCEC (viable cells) ([1]; P>0.05): no significant inhibition

Substance: des-Arg^9-[Leu^8]-bradykinin [reference compound]
- block of bradykinin-induced endothelial cell proliferation (B1 receptor): completely block bradykinin-induced endothelial cell proliferation
- viable cells, % of the control ([1]; P<0.05): 85 % of the control
